Results: patent US20110218143A1, “COMPOSITIONS AND METHODS FOR TISSUE REPAIR” (UNIVERSITY OF FLORIDA RESEARCH FOUNDATION, priority 2007, published 2011)
“Also recorded” adds a separate entry of the source.

Columns and labels:
[1] = system: cytokine production in mouse blood; experiment: Cytokine/chemokine levels in blood serum (Millipore 21-Plex, Luminex); assay type: in vivo, C57BL6/J mice
Experimental: Mice received either a placebo, celastrol (3.0 mg/kg), or 17-AAG (10 mg/kg) by intraperitoneal injection. Blood samples were taken from all groups of mice at 0, 1, 3, 6, 24, 48, and 72 hours after administration of the placebo, celastrol, or 17-AAG. The blood samples were analyzed for cytokine production, including the production of granulocyte-macrophage colony-stimulating factor (GM-CSF), interferon-gamma (IFN-γ), interleukin-10 (IL-10), interleukin-12 subunit beta (IL-12p40), interleukin-12 heterodimer (IL-12p70), interleukin-12 homodimer (IL-12p80), vascular endothelial growth factor (VEGF), tumor necrosis factor-alpha (TNF-α), keratinocyte derived chemokine (KC), RANTES (Regulated upon Activation, Normal T-cell Expressed, and Secreted; CCL5), monocyte chemotactic protein-1 (MCP 1), macrophage inflammatory protein (MIP1β; CCL4), interleukin-4 (IL-4), interleukin-3 (IL-3), interleukin-2 (IL-2), interleukin-1 beta (IL-1β), interleukin-1 alpha (IL-1α), interleukin-9 (IL-9), interleukin-13 (IL-13), interleukin-17 (IL-17), interleukin-6 (IL-6), and interleukin-5 (IL-5). Blood serum was analyzed using a commercially available kit (e.g., Mouse cytokine/chemokine panel: 21-Plex; Millipore). Blood serum (50 μl) was assayed in duplicate using a commercially available cytokine/chemokine detection kit from Millipore following the protocol given with the product information. The final measurement was performed using a commercially available detector (e.g., computer-operated Luminex 100 IS system) and the results were expressed as pg/ml blood serum sample. Levels of cytokines in blood were quantitated as a concentration of the total volume of the sample.

[2] = system: stem cell populations in blood (cd34+, cd45+, Sca-1+ cells); experiment: FACS of cells expressing stem cell markers CD34, CD45, Sca-1 in blood samples; assay type: in vivo, C57BL6/J mice
Experimental: Mice received either a placebo or triptolide (400 μg/kg) by intraperitoneal injection.
Celastrol analogs administered included dihydrocelastrol, dihydrocelastrol diacetate, and pristimerol (dihydropristimerin). Mice received either a placebo or a celastrol analog (3.0 mg/kg) by intraperitoneal injection.
(§1) Mice received either a placebo (PBS) or oridonin (3.0 mg/kg) by intraperitoneal injection.

[3] = system: stem cell populations in bone marrow (cd34+, cd45+, Sca-1+ cells); experiment: FACS of cells expressing stem cell markers CD34, CD45, Sca-1 in bone marrow samples; assay type: in vivo, C57BL6/J mice
Experimental: as §1

mice = settings: mouse, in vivo
Experimental: Valproic acid was administered to C57BL6/J mice to determine the effect of valproic acid on stem cell populations in bone marrow and in blood. Mice received either a placebo or valproic acid (200 mg/kg) by intraperitoneal injection. […] Bone marrow samples were taken from both groups of mice at 24 hours after administration of the placebo or valproic acid. Blood samples were taken from both groups of mice at 72 hours after administration of the placebo or valproic acid. The bone marrow samples and blood samples were analyzed by FACS for cells expressing stem cell markers. To observe the effect of treatment with valproic acid, cells expressing the stem cell markers CD34, CD45, and Sca-1 in the bone marrow and blood samples, were quantitated as a percentage of the total populations in their respective samples (i.e., in the bone marrow sample and in the blood sample, respectively).

[4] = system: stem cell populations in blood (cd34+, cd45+, Sca-1+ cells); experiment: FACS of cells expressing stem cell markers CD34, CD45, Sca-1 in blood samples; assay type: in vivo, C57BL6/J mice; settings: valproic acid 200 mg/kg i.p.; 72 hours post treatment
[5] = i.p. celastrol 3.0 mg/kg or 17-AAG 10 mg/kg, 72 hour time course
[6] = i.p. celastrol 3.0 mg/kg or 17-AAG 10 mg/kg, sampled 0-72 h
[7] = i.p. celastrol 3.0 mg/kg or 17-AAG 10 mg/kg, sampled 0-72 h, vs placebo control
[8] = celastrol analog 3.0 mg/kg i.p., 24 hours post treatment (so in the source)
[9] = celastrol analog 3.0 mg/kg i.p., 24 hours post treatment
[10] = oridonin 3.0 mg/kg i.p., 48 hours post treatment
[11] = oridonin 3.0 mg/kg i.p., 24 hours post treatment
[12] = triptolide 400 μg/kg i.p., 24 hours post treatment
[13] = triptolide 400 μg/kg i.p., 48 hours post treatment
[14] = triptolide 400 μg/kg i.p., 72 hours post treatment
[15] = valproic acid 200 mg/kg i.p., 72 hours post treatment
[16] = valproic acid 200 mg/kg i.p., 24 hours post treatment

## C=CCNC1=C2C[C@@H](C)C[C@H](OC)[C@H](O)[C@@H](C)/C=C(\C)[C@H](OC(N)=O)[C@@H](OC)/C=C\C=C(/C)C(=O)NC(=CC1=O)C2=O [Formula 17-AAG, 17-allylamino-17-demethoxygeldanamycin]
[1]; 17-AAG 10 mg/kg i.p., by 24 hours post treatment
  level of TNF-α compared to placebo control: declined below levels seen in the placebo control
[1]; 17-AAG 10 mg/kg i.p., over the course of the experiment
  level of MCP1 compared to placebo control: not significantly different
[1]; i.p. celastrol 3.0 mg/kg (throughout 72 hours) or 17-AAG 10 mg/kg (up to 48 hours)
  level of IL-17 compared to placebo control: consistently high
[1]; [5]
  level of IFN-γ compared to placebo control: remained elevated up to 72 hours
  level of IL-1β compared to placebo control: remained elevated up to 72 hours
  level of IL-3 compared to placebo control: remained elevated up to 72 hours
  level of IL-4 compared to placebo control: remained elevated up to 72 hours
  level of IL-5 compared to placebo control: remained elevated up to 72 hours
  level of IL-10 compared to placebo control: remained elevated up to 72 hours; also recorded: had risen again by 72 hours
  level of IL-12p40 compared to placebo control: elevated again at 24 hours
  level of IL-12p70 compared to placebo control: remained elevated up to 72 hours
  level of IL-12p80 compared to placebo control: remained elevated up to 72 hours
[1]; [6]
  time by which GM-CSF (elevated pre treatment) declined to placebo control levels: ≤ 6 h
  time by which IL-1α returned to levels seen in the placebo control: ≤ 24 h
  time by which IL-2 returned to levels seen in the placebo control: ≤ 6 h
  time by which IL-6 returned to levels seen in the placebo control: ≤ 24 h
  time by which IL-9 (elevated pre treatment) declined to placebo control levels: ≤ 6 h
  time by which IL-13 returned to levels seen in the placebo control: ≤ 6 h
  time by which KC returned to levels seen in the placebo control: ≤ 24 h
  time by which MIP1β returned or declined to placebo control levels: ≤ 6 h
  time by which RANTES returned to levels seen in the placebo control: up to 72 hours
  time by which VEGF returned to levels seen in the placebo control: ≤ 6 h
[1]; [7]
  time of peak level of IFN-γ post treatment: around 24 hours
  time of peak level of IL-1α post treatment: around 6 hours
  time of peak level of IL-1β post treatment: around 24 hours
  time of peak level of IL-2 post treatment: around 3 hours
  time of peak level of IL-3 post treatment: around 24 hours
  time of peak level of IL-4 post treatment: around 24 hours
  time of peak level of IL-5 post treatment: around 24 hours
  time of peak level of IL-6 post treatment: around 6 hours
  time of peak level of IL-10 post treatment: around 24 hours
  time of peak level of IL-12p70 post treatment: around 24 hours
  time of peak level of IL-12p80 post treatment: around 24 hours
  time of peak level of IL-13 post treatment: around 3 hours
  time of peak level of KC post treatment: around 6 hours
  time of peak level of MCP1 post treatment: around 24 hours
  time of peak level of MIP1β post treatment: around 3 hours
  time of peak level of RANTES post treatment: around 48 hours
  time of peak level of TNF-α post treatment: around 3 hours
  time of peak level of VEGF post treatment: around 3 hours

## Cc1c(O)c(O)cc2c1CC=C1[C@@]2(C)CC[C@@]2(C)[C@@H]3C[C@](C)(C(=O)O)CC[C@]3(C)CC[C@]12C [dihydrocelastrol]
[2]; [8]
  Sca-1+ cells, percent of the population of blood cells: 0.4%
  cd34+ cells, percent of the population of blood cells: approximately 0.6%
  cd45+ cells, percent of the population of blood cells: about 0.19%
  fold increase of percentage of Sca-1+ cells in blood over control: ~10 fold
  fold increase of percentage of cd34+ cells in blood over control: ~4 fold
  fold increase of percentage of cd45+ cells in blood over control: ~10 fold
[3]; [9]
  Sca-1+ cells, percent of the population of bone marrow cells: 0.14%
  cd34+ cells, percent of the population of bone marrow cells: 0.15%
  cd45+ cells, percent of the population of bone marrow cells: 0.04%
  change of percentage of cd45+ cells in bone marrow compared to untreated control: slight increase
  fold increase of percentage of Sca-1+ cells in bone marrow over control: ~3 fold
  fold increase of percentage of cd34+ cells in bone marrow over control: ~3 fold

## C=C1C(=O)[C@]23[C@H](O)[C@H]1CC[C@H]2[C@@]12CO[C@]3(O)[C@@H](O)[C@@H]1C(C)(C)CC[C@@H]2O [oridonin]
[2]; [10]
  Sca-1+ cells, percent of the population of blood cells: 0.14%
  cd34+ cells, percent of the population of blood cells: approximately 0.18%
  fold increase of percentage of Sca-1+ cells in blood over control: ~1.4 fold
  fold increase of percentage of cd34+ cells in blood over control: ~1.8 fold
[3]; [11]
  CD34 cells, percent of the population of bone marrow cells: greater than 0.5%
  Sca-1+ cells, percent of the population of bone marrow cells: about 0.5%
  fold increase of percentage of Sca-1+ cells in bone marrow over control: ≥ 10 fold
  fold increase of percentage of cd34+ cells in bone marrow over control: ≥ 10 fold

## COC(=O)[C@]1(C)CC[C@]2(C)CC[C@]3(C)C4=CCc5c(cc(O)c(O)c5C)[C@]4(C)CC[C@@]3(C)[C@@H]2C1 [pristimerol]
[2]; [8]
  Sca-1+ cells, percent of the population of blood cells: about 0.25%
  cd34+ cells, percent of the population of blood cells: about 0.4%
  cd45+ cells, percent of the population of blood cells: about 0.06%
  fold increase of percentage of Sca-1+ cells in blood over control: ~6 fold
  fold increase of percentage of cd34+ cells in blood over control: ~3 fold
  fold increase of percentage of cd45+ cells in blood over control: ~3 fold
[3]; [9]
  Sca-1+ cells, percent of the population of bone marrow cells: about 0.28%
  cd34+ cells, percent of the population of bone marrow cells: about 0.28%
  cd45+ cells, percent of the population of bone marrow cells: about 0.16%
  fold increase of percentage of Sca-1+ cells in bone marrow over control: 4-5 fold
  fold increase of percentage of cd34+ cells in bone marrow over control: greater than 4 fold
  fold increase of percentage of cd45+ cells in bone marrow over control: greater than 5 fold

## CC(C)[C@]12O[C@H]1[C@@H]1O[C@]13[C@]1(O[C@H]1C[C@H]1C4=C(CC[C@@]13C)C(=O)OC4)[C@@H]2O [triptolide]
[2]; [12]
  CD34-expressing cells, percent of the population of blood cells: ~1%
  Sca-1+ cells, percent of the population of blood cells: ~1%
[2]; [13]
  Sca-1+ cells, percent of cells in blood: ~2%
  cd34+ cells, percent of cells in blood: ~2%
  cd45+ cells, percent of the cells in blood: about 0.2%
[2]; [14]
  Sca-1+ cells, percent of cells in blood: ~3%
  cd34+ cells, percent of cells in blood: about 3%
[3]; [12]
  cd34+ cells, percent of the population of bone marrow cells: ~0.8%
  fold increase in the proportion of Sca-1 stem cells in bone marrow vs untreated mice: approximately 15 fold
  fold increase of percentage of cd34+ cells in bone marrow over control: ~16 fold
  fold increase of percentage of cd45+ cells in bone marrow vs untreated control: about 3 fold
  sca-1+ stem cells, percent of bone marrow cell population: 0.75%
[3]; [13]
  cd34+ cells, percent of bone marrow cells: 0.3%
  cd45+ cells, percent in bone marrow: about 0.07%
  fold increase of percentage of cd34+ cells in bone marrow compared to control mice: 6 fold
  sca-1+ cells, percent of bone marrow cell population: 0.25%
[3]; [14]
  CD34 cells, percent in bone marrow: 0.65%
  Sca-1+ cells, percent in bone marrow: about 0.5%
  cd45+ cells, percent in bone marrow: ~0.12%

## CCCC(CCC)C(=O)O [valproic acid]
[2]; [15]
  Sca-1+ cells, percent of the population of blood cells: less than 0.4%
  cd34+ cells, percent of the population of blood cells: greater than 0.4%
  cd45+ cells, percent of the population of blood cells: less than 0.2%
  fold increase of percentage of cd34+ cells in blood over control: ~2.6 fold
[3]; [16]
  CD34 cells, percent of the population of bone marrow cells: about 0.2%
  Sca-1+ cells, percent of the population of bone marrow cells: about 0.18%
  cd45+ cells, percent of the population of bone marrow cells: about 0.08%
  fold increase of percentage of Sca-1+ cells in bone marrow over control: ~6 fold
  fold increase of percentage of cd34+ cells in bone marrow over control: ≥ 4 fold
  fold increase of percentage of cd45+ cells in bone marrow over control: ≥ 3 fold
mice
  toxicity in mice: not toxic
[4]
  fold increase of percentage of Sca-1+ cells in blood over control: ~3 fold
  fold increase of percentage of cd45+ cells in blood over control: ~4 fold

## dihydrocelastrol diacetate
[2]; [8]
  Sca-1+ cells, percent of the population of blood cells: about 1.4%
  cd34+ cells, percent of the population of blood cells: 1.5%
  cd45+ cells, percent of the population of blood cells: about 0.4%
  fold increase of percentage of Sca-1+ cells in blood over control: ~36 fold
  fold increase of percentage of cd34+ cells in blood over control: ~10 fold
  fold increase of percentage of cd45+ cells in blood over control: ~20 fold
[3]; [9]
  Sca-1+ cells, percent of the population of bone marrow cells: about 0.17%
  cd34+ cells, percent of the population of bone marrow cells: 0.15%
  change of percentage of cd45+ cells in bone marrow compared to untreated control: decrease
  fold increase of percentage of Sca-1+ cells in bone marrow over control: ~3 fold
  fold increase of percentage of cd34+ cells in bone marrow over control: ~3 fold
